Experiments:
Streptococcus mutans = conditions: especially with respect to Streptococcus mutans; cited from earlier work
[1] = Antimicrobial/bacteriostatic effect of zinc oxide at low levels; conditions: even at low levels

Which results are given for `[O]=[Zn]` [Zinc oxide, Zinc Oxide]?
antimicrobial properties (Streptococcus mutans): antimicrobial properties; antimicrobial/bacteriostatic effect [1]: effective antimicrobial/bacteriostatic effect

From patent US6555125B2, “Lesion and ulcer medication” (priority 1999, dated 2003)
